Broadly, the viscosity is the resistance of a fluid to flow. One may read the mass density as the mass of a sample divided by its volume.

± gives the expanded uncertainty stated by the source.

For data set [1] the following is noted: 100 kPa, Liquid; for viscosity: Falling or rolling sphere viscometry; for mass density: Vibrating tube method.
Data set [2] can be described thus: xn = mol fraction of the nth substance listed. As to conditions: 100 kPa, Liquid, Falling or rolling sphere viscometry, x2 = 0.

As to `C1CCC2=NCCC[NH+]2CC1.c1c[n-]cn1` [1,8-diazabicyclo[5.4.0]undec-7-enium imidazolide], the viscosity in data set [1] (293.15 K) was determined as 47.82 ± 1.2 mPa·s; in data set [1] (298.15 K) it was 34.94 ± 0.85 mPa·s; in data set [1] (303.15 K) it was 26.36 ± 0.64 mPa·s; in data set [1] (308.15 K), 20.5 ± 0.49 mPa·s; in data set [1] (313.15 K), 16.28 ± 0.39 mPa·s. For the same compound, the mass density was found to be 1053.63 ± 4.3 kg/m3 in data set [1] (293.15 K); 1049.78 ± 4.3 kg/m3 in data set [1] (298.15 K); 1045.94 ± 4.3 kg/m3 in data set [1] (303.15 K); 1042.11 ± 4.2 kg/m3 in data set [1] (308.15 K); 1038.28 ± 4.2 kg/m3 in data set [1] (313.15 K).
Consider `O` [water], for which the viscosity in data set [1] (293.15 K) is recorded as 1.002 ± 0.021 mPa·s; in data set [1] (298.15 K), 0.89 ± 0.02 mPa·s; in data set [1] (303.15 K), 0.797 ± 0.017 mPa·s; in data set [1] (308.15 K), 0.718 ± 0.015 mPa·s; in data set [1] (313.15 K), 0.651 ± 0.014 mPa·s.
In the case of `O` [water] + C1CCC2=NCCC[NH+]2CC1.c1c[n-]cn1, the viscosity in data set [2] (293.15 K) was determined as 1.002 ± 0.021 mPa·s; in data set [2] (298.15 K), 0.89 ± 0.02 mPa·s; in data set [2] (303.15 K), 0.797 ± 0.017 mPa·s; in data set [2] (308.15 K), 0.718 ± 0.015 mPa·s; in data set [2] (313.15 K) it was 0.651 ± 0.014 mPa·s.

The values are drawn from the NIST ThermoML archive (doi:10.1016/j.jct.2015.08.010).
